Laboratory results as given in patent publication US9487486B2, “Derivatives of nicotinic acid N-oxide, their preparation and their use as inhibitors of enzyme 3-hydroxyanthranilate-3, 4-dioxygenase” (UNIVERSITY OF MARYLAND, BALTIMORE, priority 2011, dated 2016).

Columns and labels:
[1] = molecular target: T1, 3-hydroxyanthranilate-3,4-dioxygenase (3HAO) (Rattus norvegicus, UniProt P46953); test: In vitro 3HAO inhibition in rat brain homogenates; type: biochemical
T1 construct: One hundred μl of control Sprague Dawley rat brain homogenate; from tissue; host or cells: Sprague Dawley rat brain homogenate
T1 sequence (P46953 1-286): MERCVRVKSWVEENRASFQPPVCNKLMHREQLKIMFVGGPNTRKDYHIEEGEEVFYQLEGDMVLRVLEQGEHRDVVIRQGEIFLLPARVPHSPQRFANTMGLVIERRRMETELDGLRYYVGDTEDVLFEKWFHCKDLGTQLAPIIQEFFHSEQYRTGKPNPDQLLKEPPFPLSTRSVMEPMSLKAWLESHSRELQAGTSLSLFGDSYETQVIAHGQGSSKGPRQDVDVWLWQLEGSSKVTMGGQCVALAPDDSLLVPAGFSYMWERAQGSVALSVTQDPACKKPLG
Method: (§1) The following procedure has been carried out for all the six compounds prepared according to the Examples 1-6 above.
(§2) One hundred μl of control Sprague Dawley rat brain homogenate (1/10 dilution in bidistilled water) were further diluted (1/2, 5 v/v) with a 5 mM MES/NaOH buffer (pH 6.5) and incubated at 37° C. for 1 h in the presence of the radiolabeled substrate[14C]-3-hydroxyanthranilic acid (3.7 µM), ferrous ammonium sulphate (150 µM), ascorbic acid (0.01%). 20 μl of a solution (10 μM) of a compound of the invention were added prior to the addition of the radiolabeled substrate, for a total volume of 200 μl. The enzymatic reaction was stopped by adding 50 μl of 6% perchloric acid. The mixture was centrifuged for 5 min a 12.000 g and the supernatant was applied to a column packed with a cation-exchange resin (Dowex 50W, 0.5×2.0 cm; protonated form). [14C]-quinolinic acid formed by enzymatic reaction was eluted with 1 ml of distilled water. The eluate was added to scintillation liquid (Beckman, Ultima Gold) and radioactivity was measured with a is beta-counter.
(§3) The same procedure has been repeated by adding 20 μl of a solution (100 μM) of a compound of the invention and repeated by adding 20 μl of a solution (1000 μM) of a compound of the invention.

[2] = molecular target: T2, 3-hydroxyanthranilate-3,4-dioxygenase (3HAO) (Homo sapiens, UniProt P46952); test: In vitro 3HAO inhibition in human brain homogenates; type: biochemical
T2 construct: One hundred μl of healthy human brain homogenate; from tissue; host or cells: healthy human brain homogenate
T2 sequence (P46952 1-286): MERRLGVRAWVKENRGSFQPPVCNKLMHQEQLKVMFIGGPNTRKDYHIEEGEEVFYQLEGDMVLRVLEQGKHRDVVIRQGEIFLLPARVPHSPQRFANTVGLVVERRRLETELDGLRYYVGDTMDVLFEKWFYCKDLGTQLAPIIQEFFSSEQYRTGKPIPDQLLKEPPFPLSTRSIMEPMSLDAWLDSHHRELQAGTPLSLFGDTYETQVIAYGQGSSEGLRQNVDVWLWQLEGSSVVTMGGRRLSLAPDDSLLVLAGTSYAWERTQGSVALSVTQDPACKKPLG
Method: as §1
as §2, with “of healthy human” for “of control Sprague Dawley rat”, “(3.7 μM),” for “(3.7 µM),”, “(150 μM),” for “(150 µM),”, “substrate, to” for “substrate, for”, “a final” for “a total”, “a” for “a is”
as §3

[3] = test system: de novo production of QUIN in QUIN-lesioned rat brain; test: In vivo de novo production of QUIN from 3H-kynurenine in QUIN-lesioned rat striatum; conditions: 5 mM I3 co-infused intrastriatally with 3H-kynurenine, 7 days after lesion, 2 h, FIG. 1
Method: Quinolinic acid lesions in the rat striatum were made as described by Schwarcz et al. (1983), using 300 nmol quinolinic acid per injection. In vivo assays of I3 in the lesioned striatum were performed 7 days later. [Schwarcz R, Whetsell W O Jr, Mangano R M (1983) Quinolinic acid: an endogenous metabolite that produces axon-sparing lesions in rat brain. Science 219:316-8.]
Intrastriatal injection of 3H-kynurenine: two months-old male Sprague-Dawley rats were anesthetized with chloral hydrate (360 mg/kg, i.p.) and mounted in a David Kopf stereotaxic apparatus (Tujunga, Calif.). Through a small burr hole in the skull, […] of 3H-kynurenine [in phosphate-buffered saline (PBS), pH 7.4] was infused (6 μL over 10 min) intrastriatally. 3H-kynurenine was infused in the absence or presence of 5 mM I3. The injection coordinates were: AP: 1.0 mm anterior to bregma, L: 2.6 mm from the midline, V: 4.8 mm below dura. Animals were euthanized 2 h later and the striatum was dissected out, frozen on dry ice and stored at −80° C. Subsequently, the tissue was processed for the determination of tritiated neuroactive products of KP metabolism. […]
Analysis of 3H-quinolinic acid: the analysis of tritiated quinolinic acid derived from 3H-kynurenine was performed essentially as described by Guidetti et al. (1995). […] Tritiated quinolinic acid was detected radiometrically (Beta-Ram; IN/US Systems, Tampa, Fla.). […]

[4] = Chemical stability over time in phosphate buffer (HPLC); type: physicochemical; conditions: phosphate buffer pH 7.5; 10 and 100 μM; 37° C.; 24 h; FIG. 2
Method: Compound I3 was dissolved in a phosphate buffer at pH 7.5 at two different concentrations (10 and 100 μM). The resulting solutions were incubated at 37° C. for 24 h.
Chromatographic analyses were performed with a HPLC system (Shimadzu Corp., Kyoto, Japan), endowed with a UV/VIS detector, and the samples were eluted with a mixture containing methanol (0.05% TFA)/water (0.25% TFA)=20/80 at a flow rate of 1 ml/min.

[5] = 10 μM compound, rat brain homogenate
[6] = 100 μM compound, rat brain homogenate
[7] = 1000 μM compound, rat brain homogenate (I1-I3 table)
[8] = 10 μM compound, human brain homogenate
[9] = 100 μM compound, human brain homogenate
[10] = 1000 μM compound, human brain homogenate (I1-I3 table)
[11] = 1000 μM compound, rat brain homogenate (I4-I6 table)
[12] = 1000 μM compound, human brain homogenate (I4-I6 table)

% inibition of 3HAO (r) [1, 5] [%] | % inibition of 3HAO (r) [1, 6] [%] | % inibition of 3HAO (r) [1, 7] [%] | % inibition of 3HAO (h) [2, 8] [%] | % inibition of 3HAO (h) [2, 9] [%] | % inibition of 3HAO (h) [2, 10] [%] | % inibition of 3HAO (r) [1, 11] [%] | % inibition of 3HAO (h) [2, 12] [%] | Compound | Effect on brain level of QUIN (de novo 3H-quinolinic acid production) [3] | Chemical stability (HPLC) [4]
49 | 90 | 97 | 66 | 93 | 96 |  |  | Nc1c(C(=O)O)ccc[n+]1[O-] [Compound I1, 2-aminonicotinic acid N-oxide] |  | 
22 | 76 | 99 | 42 | 100 | 100 |  |  | Nc1c(C(=O)O)ccc(Cl)[n+]1[O-] [Compound I2, 2-amino-6-chloronicotinic acid N-oxide] |  | 
 |  |  |  |  |  | 15 | 23 | Cc1ccc(C(N)=O)c(N)[n+]1[O-] [Compound I4, 2-amino-6-methylnicotinamide N-oxide] |  | 
 |  |  |  |  |  | 80 | 70 | Cc1cc(-c2ccccc2)c(C(=O)O)c(N)[n+]1[O-] [Compound I5, 2-amino-4-phenyl-6-methylnicotinic acid N-oxide] |  | 
 |  |  |  |  |  | 70 | 60 | CC(C)c1cc(C(C)C)[n+]([O-])c(N)c1C(=O)O [Compound I6, 2-amino-4,6-diisopropylnicotinic acid N-oxide] |  | 

Compound | % inibition of 3HAO (r) [1, 5] [%] | % inibition of 3HAO (r) [1, 6] [%] | % inibition of 3HAO (r) [1, 7] [%] | % inibition of 3HAO (h) [2, 8] [%] | % inibition of 3HAO (h) [2, 9] [%] | % inibition of 3HAO (h) [2, 10] [%] | % inibition of 3HAO (r) [1, 11] [%] | % inibition of 3HAO (h) [2, 12] [%] | Effect on brain level of QUIN (de novo 3H-quinolinic acid production) [3] | Chemical stability (HPLC) [4]
Cc1ccc(C(=O)O)c(N)[n+]1[O-] [Compound I3, 2-amino-6-methylnicotinic acid N-oxide] | 78 | 97 | 99 | 80 | 100 | 100 |  |  | able to block the abnormal de novo production of QUIN under excitotoxic conditions | complete chemical stability
